We go through nine compounds from patent US20230355612A1 (SHANGHAI BOCIMED PHARMACEUTICAL CO., LTD., priority 2020, published 2023).

≈ marks a conversion by molar mass, not a printed value. Structures can show the parent of a compound that is named as a salt. Where two headings read alike, the source gives them in different places.

In general, solubility refers to how much of the substance goes into solution per volume. Read a high solubility as a readily soluble substance. What is called Solubility is the concentration that dissolves in the medium under given conditions.

The nature of data set [1]: In vitro dissolution simulation experiment, phosphate buffer pH 7.4. The conditions noted are these: pH 7.4 phosphate buffer, 37° C. It counts as physicochemical. How it is done:
The mixtures were shaken at 37° C.

Data set [2] in a line: Related substances stability of solids under stress conditions (HPLC). The conditions noted are these: for Total related substances: left to stand under these conditions for 10 days. Type of data set: physicochemical. How it is done:
(§1) Unless otherwise indicated, the starting materials and reagents in the examples below are either commercially available or prepared by one skilled in the art according to methods known in the art. The salt compounds of the examples were tested by nuclear magnetic resonance (^1H-NMR), X-ray powder diffraction (XRPD), differential scanning calorimetry (DSC), thermogravimetric analysis (TGA), hot-stage polarized light microscopy (PLM) and high performance liquid chromatography (HPLC), and the test parameters are as follows: • (1) The ^1H-NMR measurements were taken on a Bruker Advance III500M nuclear magnetic resonance spectrometer at a frequency of […] with deuterated DMSO as the solvent. • (2) The DSC measurements were taken on a sealed pan device in TA Instruments model Q2000: samples (about 1-2 mg) were weighed in aluminum pans and transferred to the instrument for measurement. The test parameters are as follows: the instrument was equilibrated at 30° C. and heated to 300° C. at a rate of 10° C./min, data was collected, and the experiments were conducted in a nitrogen atmosphere. • (3) The TGA measurements were taken on a TA Instruments model Q500 device: samples (about 2-5 mg) were weighed in aluminum pans and transferred to the instrument for measurement. The test parameters are as follows: the instrument was heated to 350° C. at a rate of 10° C./min, data was collected, and the experiments were conducted in a nitrogen atmosphere. • (4) The XRPD measurements were taken on a Bruker model D8 Advance X-ray powder diffractometer using a round zero background single crystal silicon sample stage. The scan parameters are as follows: voltage, 40 kv; current, 40 mA; scan range, 3-45°; scan increment, 0.02°; scan mode, continuous scan. • (5) The PLM analyses were performed under a model DYP990/TPH350 hot stage polarizing microscope from Shanghai Dian Ying Optical Instruments: a small amount of sample was dispersed in a glass slide and photographed using an eyepiece lens at a magnification of 10× and an objective lens at a magnification of 5-40×. • (6) Methods of measuring HPLC content and detecting related substances: […]

The next data set can be described thus: physchem. The settings on record: for solubility at 24 h: 37 °C, thermodynamic from solid. How it is done: The mixtures were shaken at 37° C. for 24 h and filtered through 0.45 μm aqueous-phase filter membranes. The filtrates were collected and the solubility was determined by high performance liquid chromatography. pH3, pH4, pH5 and pH6 represent acetate buffer solutions, and pH7, pH7.4, pH8 and pH9 represent phosphate buffer solutions.

Data set [3] in a line: Pharmacokinetic experiment in rats (plasma cariprazine, LC-MS/MS). Type of data set: in vivo, SD rats.
Protocol: In the whole experiment, the animals from the intramuscular injection group were given ad libitum access to food and water, and those from the oral intragastrical group were fasted overnight before administration and given access to food 4 h after administration.
Plasma sample collection: about 150 μL of blood was collected from the jugular vein (whole blood was centrifuged within 30 min to isolate plasma) and placed in a tube containing anticoagulant EDTA-K2, and after treatment, plasma was stored in a freezer at −70° C. before use.
Pretreatment of plasma sample: to 30 μL of plasma sample was added 200 μL of internal standard solution (40 ng/mL Glipizide acetonitrile solution); the mixture was vortexed for 1 min and centrifuged at 5800 rpm at 4° C. for 10 min; 100 μL of supernatant was transferred to a new plate and 1 μL of solution was taken for LC-MS/MS analysis.
Data set [4] is described as follows: Crystalline form stability of solids under stress conditions (XRPD). It counts as physicochemical. As to the method:
as §1

[5] abbreviates: left to stand under these conditions for 10 days.

For the compound `CN(C)C(=O)NC1CCC(CCN2CCN(c3cccc(Cl)c3Cl)CC2)CC1` (centres unmarked) [Amorphous cariprazine embonate, cariprazine embonate], the Concentration was 11940 ng/mL in data set [1] (1 (h)); 10300 ng/mL in data set [1] (3.5 (h)); 9580 ng/mL in data set [1] (5 (h)); 7080 ng/mL in data set [1] (7 (h)); 9900 ng/mL in data set [1] (24 (h)). In addition, in data set [2] (high-temperature conditions), the Increase in impurities result is recorded as “bigger increase in impurities”.

Consider `CN(C)C(=O)N[C@H]1CC[C@H](CCN2CCN(c3cccc(Cl)c3Cl)CC2)CC1` [Cariprazine], for which the solubility at 24 h is 1 µg/mL (≈ 2.34 µM) in the data set “physchem” (pH 8, aqueous buffer) and about 180 µg/mL (≈ 421 µM) in “physchem” (water).

In the case of `CN(C)C(=O)NC1CCC(CCN2CCN(c3cccc(Cl)c3Cl)CC2)CC1` (centres unmarked) [Crystalline form A of cariprazine embonate], the Concentration was 1000 ng/mL in data set [1] (1 (h)); 3400 ng/mL in data set [1] (3.5 (h)); 4100 ng/mL in data set [1] (5 (h)); 3900 ng/mL in data set [1] (7 (h)); 2500 ng/mL in data set [1] (24 (h)). Moreover, in data set [2], the Total related substances entry is listed as “remained substantially unchanged”. For the same compound, the “Length of release among the crystalline forms” value in data set [3] (rats, single intramuscular injection 9 mg/kg) is reported as “best length of release”. Besides, the Crystalline form result in data set [4] (setting [5]) was “its crystalline form did not change”. Moreover, the Crystallinity entry in data set [4] (setting [5]) is “did not change significantly”.

As to `CN(C)C(=O)NC1CCC(CCN2CCN(c3cccc(Cl)c3Cl)CC2)CC1` (centres unmarked) [Crystalline form B of cariprazine embonate], the Concentration in data set [1] (1 (h)) was 5300 ng/mL; in data set [1] (3.5 (h)), 4000 ng/mL; in data set [1] (5 (h)), 5200 ng/mL; in data set [1] (7 (h)) it was 2200 ng/mL; in data set [1] (24 (h)) it was 1700 ng/mL. The Total related substances result in data set [2] is “remained substantially unchanged”.

Take `CN(C)C(=O)NC1CCC(CCN2CCN(c3cccc(Cl)c3Cl)CC2)CC1` (centres unmarked) [Crystalline form G of cariprazine embonate]: the Concentration is 1300 ng/mL in data set [1] (1 (h)); 4510 ng/mL in data set [1] (3.5 (h)); 2280 ng/mL in data set [1] (5 (h)); 1840 ng/mL in data set [1] (7 (h)); 8050 ng/mL in data set [1] (24 (h)). In data set [2], the Total related substances entry is “remained substantially unchanged”.

`CN(C)C(=O)NC1CCC(CCN2CCN(c3cccc(Cl)c3Cl)CC2)CC1` (centres unmarked) [cariprazine embonate]: the “Absorption after oral administration” value in data set [3] (rat, in vivo, po, 0.3 mg/kg) is listed as “fast absorption”. The Crystalline form result was “change into crystalline form A of cariprazine embonate” in data set [4] (high-humidity conditions and accelerated conditions); “its crystalline form did not change” in data set [4] (high-temperature conditions and illuminated conditions).

Consider `CN(C)C(=O)N[C@H]1CC[C@H](CCN2CCN(c3cccc(Cl)c3Cl)CC2)CC1` [cariprazine hydrochloride], for which the solubility at 24 h in “physchem” (pH 3, aqueous buffer) was 12300 µg/mL; in the data set “physchem” (pH 4, aqueous buffer) it was 9770 µg/mL; in “physchem” (pH 5, aqueous buffer), 1080 µg/mL; in the data set “physchem” (water), about 11000 µg/mL.

On to cariprazine malate, for which the Solubility is over 1065.7 µg/mL in the data set “physchem”; over 266.4 µg/mL in “physchem” (pH 3); over 228.4 µg/mL in the data set “physchem” (pH 5); under 304.5 µg/mL in the data set “physchem” (pH 7); under 152.2 µg/mL in “physchem” (pH 9).

As to cariprazine succinate, the Solubility in the data set “physchem” was over 261.2 µg/mL; in the data set “physchem” (pH 3), over 215.5 µg/mL; in “physchem” (pH 9) it was under 215.5 µg/mL.
